According to publication PMC3826128 (Marine Drugs, 2013):
Like-named read-outs stand apart in the source and are kept apart here.

Key:
[1] = target: T1, Leishmania donovani DNA topoisomerase IB enzyme (LdTopIB) (Leishmania donovani, UniProt A0A3Q8IHS4+Q8WQM6); settings: earlier work of the group; cited from earlier work
[2] = target: T1, Leishmania donovani DNA topoisomerase IB enzyme (LdTopIB); experiment: Inhibition of the relaxation activity of recombinant LdTopIB (plasmid DNA relaxation assay); assay type: biochemical; settings: 30 min at 37 °C, 1.56–100 µM
Description: (§1) One unit of recombinant LdTopIB was assayed in a plasmid DNA relaxation assay for 30 min at 37 °C in the presence of 1.56–100 µM of either acids 1 or 2. Reaction products were resolved in agarose gel and subsequently visualized by ethidium bromide staining. The relative position of the negatively supercoiled DNA substrate is indicated by Sc, R is the relaxed DNA, whereas the ladder of relaxed DNA topoisomer bands is shown in between. Reactions were stopped with a mixture of 1% SDS and 6.1 µg of proteinase K. Lane 1 contains 0.5 µg of pSK plasmid DNA and lane 2, indicated by a 0, is 10% DMSO.
(§2) The LdTopIB and hTopIB inhibitory bioassays were performed as previously described. A brief description of the experimental procedure can be found as the header of Figure 1 and Figure 3.

[3] = target: T2, human topoisomerase IB enzyme (hTopIB) (Homo sapiens, UniProt P11387); experiment: Inhibition of the relaxation activity of hTopIB (plasmid DNA relaxation assay); assay type: biochemical; settings: 30 min at 37 °C, 1–100 µM
T2 sequence (P11387 1-765): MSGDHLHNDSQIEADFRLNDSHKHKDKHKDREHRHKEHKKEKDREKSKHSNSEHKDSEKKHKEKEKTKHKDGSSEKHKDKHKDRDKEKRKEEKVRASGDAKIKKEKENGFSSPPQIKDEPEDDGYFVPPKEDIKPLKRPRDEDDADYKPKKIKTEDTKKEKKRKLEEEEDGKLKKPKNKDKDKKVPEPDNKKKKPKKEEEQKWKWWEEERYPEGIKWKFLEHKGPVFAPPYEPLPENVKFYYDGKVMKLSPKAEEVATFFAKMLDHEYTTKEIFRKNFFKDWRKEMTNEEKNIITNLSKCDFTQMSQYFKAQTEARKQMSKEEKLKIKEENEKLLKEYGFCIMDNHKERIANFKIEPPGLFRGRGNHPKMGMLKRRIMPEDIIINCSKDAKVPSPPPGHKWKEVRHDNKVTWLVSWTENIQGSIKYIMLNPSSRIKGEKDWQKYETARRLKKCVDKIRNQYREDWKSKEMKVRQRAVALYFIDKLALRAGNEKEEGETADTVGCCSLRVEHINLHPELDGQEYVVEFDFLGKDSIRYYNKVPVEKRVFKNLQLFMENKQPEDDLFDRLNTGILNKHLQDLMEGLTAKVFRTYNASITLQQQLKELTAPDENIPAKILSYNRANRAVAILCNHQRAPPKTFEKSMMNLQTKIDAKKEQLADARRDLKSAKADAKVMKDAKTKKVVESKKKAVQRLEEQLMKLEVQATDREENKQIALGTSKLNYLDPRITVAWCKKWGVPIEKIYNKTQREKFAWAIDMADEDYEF
Description: as §1, with “hTopIB” for “of recombinant LdTopIB”, “1–100” for “1.56–100”
as §2

[4] = test system: LdTopIB CPT^R (LdTopIL^1−561/S175end); experiment: Inhibition of CPT-resistant doubly truncated LdTopIB; assay type: biochemical, Leishmania donovani; settings: 100 µM, 4 min at 25 °C, judged by supercoiled DNA band
Description: Figure 4 Methoxylated fatty acids inhibit LdTopIB by a CPT-independent mechanism. […] Samples were incubated for 4 min at 25 °C, stopped with 1% SDS and digested for one extra hour at 37 °C in the presence of 1 mg/mL proteinase K. DNA was extracted with one volume of phenol-chloroform and samples were run on a 1% agarose gel containing ethidium bromide to a final concentration of 40 μg/mL in order to separate supercoiled and relaxed DNA. The nicked band corresponds to the stabilized cleavage complexes. The results are representative of three independent trials.

[5] = test system: L. infantum promastigotes; experiment: Toxicity towards L. infantum promastigotes; assay type: cell-based, Leishmania infantum
From the text: (§3) The experimental procedures employed to assess the toxicity of acids 1 and 2 towards L. infantum and L. donovani are the same as the ones previously described. CPT was used as the control drug.

[6] = test system: Murine Macrophages BALB/c; experiment: Toxicity towards murine macrophages; assay type: cell-based; settings: Mus musculus, Macrophage
From the text: Murine macrophages were chosen as reference for this study since Leishmania spp. normally infects macrophages and in macrophages is where Leishmania promastigotes are transformed into Leishmania amastigotes. […] The experimental procedures employed to assess the toxicity of acids 1 and 2 towards L. infantum and L. donovani are the same as the ones previously described. CPT was used as the control drug.

[7] = test system: L. donovani promastigotes; experiment: Toxicity towards L. donovani promastigotes; assay type: cell-based; settings: Leishmania donovani
From the text: as §3

[8] = relaxation activity, read-out: LdTopIB EC50

T1 sequence (A0A3Q8IHS4 entry or part of it): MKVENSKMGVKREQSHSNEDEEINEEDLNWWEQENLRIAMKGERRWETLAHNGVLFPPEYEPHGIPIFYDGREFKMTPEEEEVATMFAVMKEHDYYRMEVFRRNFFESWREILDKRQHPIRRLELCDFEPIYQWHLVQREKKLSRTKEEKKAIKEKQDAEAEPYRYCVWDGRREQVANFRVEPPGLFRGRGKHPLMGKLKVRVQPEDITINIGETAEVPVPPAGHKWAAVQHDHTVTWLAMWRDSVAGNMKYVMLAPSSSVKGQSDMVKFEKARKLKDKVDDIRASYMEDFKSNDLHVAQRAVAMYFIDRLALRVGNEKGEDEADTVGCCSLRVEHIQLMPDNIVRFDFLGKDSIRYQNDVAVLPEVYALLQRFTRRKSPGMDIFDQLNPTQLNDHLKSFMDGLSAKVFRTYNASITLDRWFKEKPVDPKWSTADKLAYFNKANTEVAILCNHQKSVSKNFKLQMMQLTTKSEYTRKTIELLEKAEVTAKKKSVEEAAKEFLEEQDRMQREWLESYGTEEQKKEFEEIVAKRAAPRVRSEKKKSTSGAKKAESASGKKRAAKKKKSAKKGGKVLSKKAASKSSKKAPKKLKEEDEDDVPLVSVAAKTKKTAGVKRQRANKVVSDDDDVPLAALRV
T1 sequence (Q8WQM6 entry or part of it): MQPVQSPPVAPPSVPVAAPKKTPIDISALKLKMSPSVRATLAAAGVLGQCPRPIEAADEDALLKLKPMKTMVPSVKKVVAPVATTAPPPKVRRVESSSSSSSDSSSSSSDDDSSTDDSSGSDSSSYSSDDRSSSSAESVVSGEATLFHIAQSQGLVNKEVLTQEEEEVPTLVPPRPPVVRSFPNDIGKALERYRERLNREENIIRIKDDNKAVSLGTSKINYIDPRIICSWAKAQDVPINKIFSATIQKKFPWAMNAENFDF

Structure (SMILES)	EC50 [1]	EC50 [2, 8]	EC50 [3]	Inhibition of LdTopIB CPT^R [4]	EC50 [5]	EC50 ([5]; Leishmania infantum)	IC50 [6]	IC50 ([7]; footnote a, in the column L. infantum EC50, read-out: IC50 against L. donovani promastigotes)	EC50 ([7]; promastigotes)	EC50 ([2]; LdTopIB EC50, relaxation activity)
CCCCCCCCCCC#CCCCC(OC)C(=O)O (racemic) [(±)-2-OMe-6-heptadecynoic acid]	17 ± 1 µM	–	–	–	–	–	–	–	–	–
CCCCCCCCCC/C=C\CCCC(OC)C(=O)O (racemic) [(±)-2-methoxy-6Z-heptadecenoic acid]	41 ± 6 µM	–	–	–	–	–	–	–	–	–
CCCCCCCCCC/C=C\CC/C=C\CCC(OC)C(=O)O (racemic) [compound 1, (5Z,9Z)-(±)-2-methoxy-5,9-eicosadienoic acid]	–	31 ± 2 µM	> 100 µM	completely inhibit	260 ± 20 µM	240 to 260 µM	110 ± 10 µM	–	–	–
CCCCCCCCCCC#CCCC#CCCC(OC)C(=O)O (racemic) [compound 2, (±)-2-methoxy-5,9-eicosadiynoic acid]	–	22 ± 1 µM	> 100 µM	completely inhibit	240 ± 10 µM	240 to 260 µM	90 ± 20 µM	–	–	–
CCCCCCCCCCCCCC#CCCCC(OC)C(=O)O (racemic) [compound 12, (±)-2-methoxy-6-icosynoic acid]	–	53 ± 3 µM	> 100 µM	–	–	–	> 100 µM	100 ± 10 µM	100 µM	–
CC[C@@]1(O)C(=O)OCc2c1cc1n(c2=O)Cc2cc3ccccc3nc2-1 [CPT, Camptothecin, reference compound]	–	–	–	not able to inhibit	–	1.1 ± 0.1 µM	0.6 ± 0.1 µM	–	–	0.7 ± 0.1 µM
